Experimental findings from patent publication US20210274789A1, “Antimicrobial Surface Treatment” (Kode Biotech Limited, priority 2018, published 2021) are described below.

Common to all, as to format: cell-based
Assay [1] relates to Pseudomonas aeruginosa. Briefly: Growth on bandage substrate treated with crystal violet alone or with a construct, resazurin colour change. Also noted: key: No growth: dark blue (no growth); Reduced growth: purple (reduced growth); Growth: light red (growth). The note with it: crystal violet alone. The protocol:
(§1) Swatches (1 cm diameter circular disks) were cut from the fabric portion of commercially available adhesive bandages (BAND-AID™ Quilt-Aid Technology, Johnson & Johnson). Volumes of 50 μL were dispended onto the surface of the swatches and the swatches allowed to air dry undisturbed at 80° C. The volumes consisted of dispersions or solutions in deionized water of 0.04% (w/v) crystal violet, 0.25 mM or 0.13 mM of the construct designated FSL-Se or the construct designated FSL-0, or water alone. A further volume of 100 μL of 0.04% (w/v) crystal violet in deionized water was dispensed onto the surface of the dried treated swatches and incubated undisturbed at room temperature for 10 minutes before rinsing as before with sterile deionized water.
(§2) Frozen stock cultures of bacterial isolates (Staphylococcus aureus, Staphylococcus epidermis, Escherichia coli or Pseudomonas aeruginosa) were streaked on Columbia sheep blood agar plates (Fort Richard Laboratories) and the plates incubated at 37° C. for 24 hours when separate colonies had developed. Two to three colonies were then transferred to a volume of 10 mL of 21 g/L Muller-Hinton (MH) broth, vortexed and the turbidity measured at 600 nm. The MH broth was diluted with a further volume so that the turbidity provided an optical density of 0.20 for the suspensions of Staphylococcus aureus and Staphylococcus epidermis and 0.08 for the suspensions of Escherichia coli and Pseudomonas aeruginosa. The diluted suspensions (around 10^8 cfu/mL) were serially diluted.
(§3) Individual treated swatches from each treatment group were placed at the base of separate wells in a 96-well cell culture plate. Volumes of 10 μL of serial dilutions of the suspensions of bacteria were dispensed onto the surface of the swatches (excluding the negative control). The inoculated swatches were then incubated undisturbed at room temperature for 10 minutes before dispensing into each well a volume of 50 μL of sterile deionized water and 150 μL of MH broth containing 0.02% resazurin sodium salt (Sigma-Aldrich).
(§4) The colour change (if any) observed in each well was observed after incubation of the plate for 24 hours at 37° C. Observations are recorded in Tables 1, 2, 3 and 4.

The subject of assay [2] is Staphylococcus aureus. The assay is described as above. Further details: key: No growth: dark blue (no growth); Reduced growth: purple (reduced growth); Growth: light red (growth). The protocol: as §1, §2, §3, §4
The subject of assay [3] is Escherichia coli. The description is as above. Also noted: key: No growth: dark blue (no growth); Reduced growth: purple (reduced growth); Growth: light red (growth). Conditions: crystal violet alone. As to the method: as §1, §2, §3, §4
The test system of assay [4] is Staphylococcus epidermis. Nature of the assay: AgNP augmented antibacterial surface treatment of adhesive bandage swatches, resazurin. Also noted: key: Growth: growth (growth); Inhibition: inhibition of growth (inhibition); No growth: prevention of growth (no growth). Conditions: 37° C. for 24 hours, duplicate swatches. The protocol: (§5) Preparation of negatively charged silver nanoparticles Negatively charged nanoparticles of silver (AgNPs) were prepared according to the following method. Quantities of 2 g glucose and 1 g polyvinylpyrrolidone (PVP) were dissolved in water and the resultant volume heated to 90° C. A quantity of 0.5 g of silver nitrate (AgNO3) was dissolved in a separate volume of 1 mL water and the two volumes then rapidly mixed. The mixed volume was maintained at a temperature of 90° C. for a period of time of one hour before cooling to room temperature. The AgNPs were collected by repeated (3 times) centrifugation at 14,000 rpm for a period of time of 60 minutes and resuspension in deionised filtered water (Milli-Q) to remove excess oxidation products, PVP and silver ion (Ag^+). The washed suspension of AgNPs was stored in the dark at 4° C. The AgNPs were characterised by […] dispersive spectroscopy (EDS) and UV-Vis absorbance scanning.
(§6) Swatches (5×5 mm squares) were cut from the fabric portion of commercially available adhesive bandages (BAND-AID™, Quilt-Aid Technology, Johnson & Johnson). A volume of 50 μL of a 0.13 mM dispersion of one of the following constructs was pipetted onto the surface of a swatch: FSL-biotin, FSL-0, FSL-HA17 kDa, FSL-Se and FSL-spm.
(§7) The swatches were air-dried at a temperature of 80° C. prior to washing (3 times) with sterile, filtered, deionised water (Milli-Q).
(§8) Controls were prepared without contacting the swatches with constructs or without washing following contacting the swatches with construct. Individual treated squares (including controls) were placed in the bottom of individual wells of a 96-well plate and inoculated with a volume of 10 μL of a serial dilution of a log phase culture in Mueller Hinton (MH) broth of one of the following bacteria: • Staphylococcus aureus • Staphylococcus epidermis • Escherichia coli • Pseudomonas aeruginosa
(§9) The inoculated swatches were then incubated for 10 minutes before dispensing into each well of the plate a volume of 50 μL of sterile, filtered, deionised water (Milli-Q) and 150 μL of MH broth containing 0.00266% (w/v) resazurin and incubating for a period of time of 24 hours at a temperature of 37° C. The observations of resulting growth (as indicated by a colour change from blue to red) from the estimated bacterial load (2.5×10^4 or 2.5×10^6 colony forming units (cfu)) for each treatment and species of bacterium are recorded in Tables 5 to 8.

Assay [5] has as its system Pseudomonas aeruginosa. The assay is described as above. Conditions: 37° C. for 24 hours, duplicate swatches. Also noted: key: Growth: growth (growth); Inhibition: inhibition of growth (inhibition); No growth: prevention of growth (no growth). The protocol:
as §5, §6, §7, §8, §9

The test system of assay [6] is Staphylococcus aureus. Described as above. Further details: key: Growth: growth (growth); Inhibition: inhibition of growth (inhibition); No growth: prevention of growth (no growth). The note with it: 37° C. for 24 hours, duplicate swatches. As to the method:
as §5, §6, §7, §8, §9

Assay [7] has as its system Escherichia coli. The description is as above. The note with it: 37° C. for 24 hours, duplicate swatches. Also noted: key: Growth: growth (growth); Inhibition: inhibition of growth (inhibition); No growth: prevention of growth (no growth). As to the method:
as §5, §6, §7, §8, §9

Assay [8] concerns Staphylococcus epidermis. Nature of the assay: Growth on bandage substrate treated with crystal violet alone or with a construct, resazurin colour change. Also noted: key: No growth: dark blue (no growth); Reduced growth: purple (reduced growth); Growth: light red (growth). The note with it: 0.25 mM construct in combination with crystal violet. The protocol: as §1, §2, §3, §4

[9] abbreviates: challenge 1.5 × 10^4 to 10^5 cfu.
Where [10] appears, read: unwashed following application of the FSL construct, load 2.11 × 10^4 cfu.
Where [11] appears, read: unwashed following application of the FSL construct, load 2.11 × 10^6 cfu.
[12] abbreviates: washed following application of the FSL construct, load 2.11 × 10^4 cfu.
Where [13] appears, read: washed following application of the FSL construct, load 2.11 × 10^6 cfu.
The mark [14] stands for this setting: unwashed following application of the FSL construct, load 1.75 x 10^4 cfu.
[15] abbreviates: unwashed following application of the FSL construct, load 1.75 × 10^6 cfu.
Where [16] appears, read: washed following application of the FSL construct, load 1.75 x 10^4 cfu.
Setting [17] is: washed following application of the FSL construct, load 1.75 x 10^6 cfu.
The mark [18] stands for this setting: unwashed following application of the FSL construct, load 2.53 × 10^4 cfu.
The mark [19] stands for this setting: unwashed following application of the FSL construct, load 2.53 × 10^6 cfu.
Where [20] appears, read: washed following application of the FSL construct, load 2.53 × 10^4 cfu.
[21] abbreviates: washed following application of the FSL construct, load 2.53 × 10^6 cfu.
Setting [22] is: unwashed following application of the FSL construct, load 1.99 × 10^4 cfu.
The mark [23] stands for this setting: unwashed following application of the FSL construct, load 1.99 × 10^6 cfu.
[24] abbreviates: washed following application of the FSL construct, load 1.99 × 10^4 cfu.
Where [25] appears, read: washed following application of the FSL construct, load 1.99 × 10^6 cfu.

Turning to `CN(C)c1ccc(C(=C2C=CC(=[N+](C)C)C=C2)c2ccc(N(C)C)cc2)cc1.[Cl-]` [Crystal violet, N-[4-[bis[4-(dimethylamino)phenyl]methylene]-2,5-cyclohexadien-1-ylidene]-N-methyl-methanaminium chloride], the “Growth monitored by colour change of resazurin containing MH broth” value (shortened to “Growth monitored by colour change”) in assay [1] (setting [9]) is “Growth”; in assay [1] (challenge 5 × 10^3 to 10^4 cfu), “Growth”; in assay [1] (challenge 10^3 to 5 × 10^3 cfu), “Growth”; in assay [1] (challenge <500 cfu) it was “Growth”; in assay [1] (challenge >10^5 cfu) it was “Growth”; in assay [2] (crystal violet alone, challenge 500 to 1,000 cfu), “No growth”. The “Growth monitored by colour change” value in assay [3] (setting [9]), in assay [3] (challenge 5 × 10^3 to 10^4 cfu), in assay [3] (challenge 500 to 1,000 cfu) and in assay [3] (challenge >10^5 cfu) was “Growth” each time. The “Observations of growth, inhibition of growth or prevention of growth” value (“Observations of growth, inhibition … of growth” for short) in assay [4] (setting [10]) is “Inhibition”; in assay [4] (setting [11]), “Growth”; in assay [4] (setting [12]), “Inhibition”; in assay [4] (setting [13]), “Growth”; in assay [5] (setting [14]), “Growth”; in assay [5] (setting [15]), “Growth”. Besides, the “Observations of growth, inhibition … of growth” value in assay [5] (setting [16]), in assay [5] (setting [17]), in assay [6] (setting [18]), in assay [6] (setting [19]), in assay [6] (setting [20]) and in assay [6] (setting [21]) was “Growth” each time. Besides, the “Observations of growth, inhibition … of growth” value in assay [7] (setting [22]), in assay [7] (setting [23]), in assay [7] (setting [24]) and in assay [7] (setting [25]) was “Growth” in each case.
Consider NCSeCH2CO-CMG(2)-Ad-DOPE [FSL-Se], for which the “Growth monitored by colour change” value is reported as “No growth” in assay [8] (challenge 10^3 to 5 × 10^3 cfu); “No growth” in assay [8] (challenge 10^4 to 1.5 × 10^4 cfu); “No growth” in assay [8] (challenge >10^5 cfu); “No growth” in assay [2] (0.25 mM construct in combination with crystal violet, challenge 1.5 × 10^4 to 10^5 cfu); “No growth” in assay [2] (0.25 mM construct in combination with crystal violet, challenge 10^3 to 5 × 10^3 cfu); “No growth” in assay [2] (0.25 mM construct in combination with crystal violet, challenge >10^5 cfu). The “Observations of growth, inhibition … of growth” value in assay [4] (setting [10]), in assay [4] (setting [11]), in assay [4] (setting [12]), in assay [4] (setting [13]), in assay [5] (setting [14]) and in assay [5] (setting [15]) was “Growth” in each case. For the same compound, the “Observations of growth, inhibition … of growth” value in assay [5] (setting [16]), in assay [5] (setting [17]), in assay [6] (setting [18]), in assay [6] (setting [19]), in assay [6] (setting [20]) and in assay [6] (setting [21]) was “Growth” each time. In addition, the “Observations of growth, inhibition … of growth” value in assay [7] (setting [22]), in assay [7] (setting [23]), in assay [7] (setting [24]) and in assay [7] (setting [25]) was “Growth” each time.
